The results in this text go back to paper PMC7500466, “Inhibition of JNK-Mediated Autophagy Promotes Proscillaridin A- Induced Apoptosis via ROS Generation, Intracellular Ca^+2 Oscillation and Inhibiting STAT3 Signaling in Breast Cancer Cells” (Frontiers in Pharmacology, 2020).

The target of this assay is T1, STAT3 (signal transducer and activator of transcription 3) (Homo sapiens, UniProt P40763).
T1 construct: Recombinant human STAT3 protein
Briefly: SPR, STAT3 immobilized on C5 sensor chip, PSD-A […]. It is filed as binding. In general terms: In SPR one partner is held on a chip, and binding of the other changes the refractive index at the surface.

T1 sequence (P40763 2-770): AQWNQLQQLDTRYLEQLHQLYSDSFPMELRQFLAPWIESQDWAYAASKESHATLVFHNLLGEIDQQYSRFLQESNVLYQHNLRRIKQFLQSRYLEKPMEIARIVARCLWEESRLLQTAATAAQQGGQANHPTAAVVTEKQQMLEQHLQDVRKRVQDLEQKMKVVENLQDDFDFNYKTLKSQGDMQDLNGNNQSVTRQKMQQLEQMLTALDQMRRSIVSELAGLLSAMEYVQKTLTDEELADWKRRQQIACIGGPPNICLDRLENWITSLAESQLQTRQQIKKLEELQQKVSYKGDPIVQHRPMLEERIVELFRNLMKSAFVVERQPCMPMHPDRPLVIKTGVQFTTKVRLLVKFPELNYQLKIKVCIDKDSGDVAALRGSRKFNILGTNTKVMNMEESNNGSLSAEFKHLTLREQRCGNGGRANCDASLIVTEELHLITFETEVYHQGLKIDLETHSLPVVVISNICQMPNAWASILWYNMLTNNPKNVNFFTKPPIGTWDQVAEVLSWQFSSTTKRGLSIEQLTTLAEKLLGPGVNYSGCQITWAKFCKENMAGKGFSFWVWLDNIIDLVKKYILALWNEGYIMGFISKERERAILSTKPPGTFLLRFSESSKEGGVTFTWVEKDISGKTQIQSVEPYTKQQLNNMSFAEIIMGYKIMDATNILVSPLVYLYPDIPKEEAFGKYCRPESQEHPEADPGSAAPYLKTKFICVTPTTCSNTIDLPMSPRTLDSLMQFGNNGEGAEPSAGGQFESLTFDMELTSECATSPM

In turn, `C[C@@H]1O[C@@H](O[C@@H]2C=C3CC[C@@H]4[C@H](CC[C@]5(C)[C@@H](c6ccc(=O)oc6)CC[C@]45O)[C@@]3(C)CC2)[C@H](O)[C@H](O)[C@H]1O` [PSD-A, Proscillaridin A] had a Kd of roughly 160 nM.

The Kd is the free concentration of one partner at which half of the binding sites on the other are occupied at equilibrium, for simple one-to-one binding. Read a high Kd as a looser complex.
